Laboratory results as given in patent US20070298106A1, “Sustained Release Formulation Containing Selective Serotonin Reuptake Inhibitor and Method for the Preparation Thereof” (Amorepacific Corporation, priority 2004, published 2007).
Counter-ions that a name gives are not always drawn.

Assay: solubility of the drug
Type: physicochemical

Structure (SMILES): Fc1ccc([C@@H]2CCNC[C@H]2COc2ccc3c(c2)OCO3)cc1 [Paroxetine hydrochloride]
- solubility: 5.4 mg/mL
